What was measured:
goosegrass = test: Test C pre-/postemergence herbicide test; type: in vivo, Eleusine indica
From the text: Seeds of plant species selected from bermudagrass (Cynodon dactylon (L.) Pers.), Surinam grass (Urochloa decumbens (Staph) R. D. Webster, previously named Brachiaria decumbens Stapf), cocklebur (Xanthium strumarium L.), corn (Zea mays L.), large crabgrass (Digitaria sanguinalis (L.) Scop.), woolly cupgrass (Eriochloa villosa (Thunb.) Kunth), giant foxtail (Setaria faberi Herrm.), goosegrass (Eleusine indica (L.) Gaertn.), johnsongrass (Sorghum halepense (L.) Pers.), kochia (Kochia scoparia (L.) Schrad.), lambsquarters (Chenopodium album L.), morningglory (Ipomoea coccinea L.), eastern black nightshade (Solanum ptycanthum Dunal), yellow nutsedge (Cyperus esculentus L.), pigweed (Amaranthus retroflexus L.), common ragweed (Ambrosia elatior L.), soybean (Glycine max (L.) Merr.), common (oilseed) sunflower (Helianthus annuus L.) and velvetleaf (Abutilon theophrasti Medik.) were planted and treated preemergence with test chemicals formulated in a non-phytotoxic solvent mixture which included a surfactant.
At the same time, plants selected from these crop and weed species and also winter barley (Hordeum vulgare L.), blackgrass (Alopecurus myosuroides Huds.), canarygrass (Phalaris minor Retz.), chickweed (Stellaria media (L.) Vill.), downy bromegrass (Bromus tectorum L.), green foxtail (Setaria viridis (L.) Beauv.), Italian ryegrass (Lolium multiflorum Lam.), wheat (Triticum aestivum L.), wild oat (Avenafatua L.) and windgrass (Apera spica-venti (L.) Beauv.) were treated with postemergence applications of some of the test chemicals formulated in the same manner. Plants ranged in height from 2 to 18 cm (1- to 4-leaf stage) for postemergence treatments. Plant species in the flooded paddy test consisted of rice (Oryza sativa), smallflower umbrella sedge (Cyperus difformis L.), ducksalad (Heteranthera limosa (Sw.) Willd.) and barnyardgrass (Echinochloa crus-galli (L.) Beauv.) grown to the 2-leaf stage for testing. Treated plants and controls were maintained in a greenhouse for 12 to 14 days, after which time all species were compared to controls and visually evaluated. Plant response ratings, summarized in Table C, are based on a scale of 0 to 100 where 0 is no effect and 100 is complete control. A dash (-) response means no test result.

winter barley = test: Test C postemergence herbicide test; type: in vivo, Hordeum vulgare
Summary of the method: (§1)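 Postemergence sprays were applied to plants 2 to 18 cm tall (1- to 4-leaf stage); in the flooded paddy test, barnyardgrass was grown to the 2-leaf stage. After 12 to 14 days in a greenhouse, injury was visually rated against untreated controls on a 0–100 scale (100 = complete control).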

blackgrass = test: Test C postemergence herbicide test; type: in vivo, Alopecurus myosuroides
Summary of the method: as §1

canarygrass = test: Test C postemergence herbicide test; type: in vivo, Phalaris minor
Summary of the method: as §1

downy bromegrass = test: Test C postemergence herbicide test; type: in vivo, Bromus tectorum
Summary of the method: as §1

green foxtail = test: Test C postemergence herbicide test; type: in vivo, Setaria viridis
Summary of the method: as §1

Italian ryegrass = test: Test C postemergence herbicide test; type: in vivo, Lolium multiflorum
Summary of the method: as §1

wheat = test: Test C postemergence herbicide test; type: in vivo, Triticum aestivum
Summary of the method: as §1

wild oat = test: Test C postemergence herbicide test; type: in vivo, Avenafatua
Summary of the method: as §1

windgrass = test: Test C postemergence herbicide test; type: in vivo, Apera spica-venti
Summary of the method: as §1

[1] = 125 g ai/ha, scale 0 (no effect) to 100 (complete control), visual, 12 to 14 days, preemergence
[2] = Postemergence, 500 g ai/ha, scale 0 to 100
[3] = Postemergence, 250 g ai/ha, scale 0 to 100, 0 no effect, 100 complete control
[4] = Preemergence, 500 g ai/ha, scale 0 to 100, 0 no effect, 100 complete control
[5] = postemergence, 125 g ai/ha, scale 0 to 100
[6] = postemergence, 62 g ai/ha, scale 0 to 100
[7] = 62 g ai/ha, preemergence, scale 0 to 100
[8] = 250 g ai/ha, scale 0-100, preemergence
[9] = 500 g ai/ha, scale 0 to 100 (0 no effect, 100 complete control), visual, 12 to 14 days, preemergence
[10] = Postemergence, 500 g ai/ha, scale 0 to 100, 0 no effect, 100 complete control
[11] = 250 g ai/ha, scale 0 to 100 (0 no effect, 100 complete control), visual, 12 to 14 days, preemergence
[12] = 31 g ai/ha, preemergence, scale 0 to 100

CCn1nc(C(C)(C)C)cc1C(=O)Nc1cccc(C(C)=NO)c1 [Compound 108]
Plant response rating (0 = no effect, 100 = complete control), Goosegrass (goosegrass; 62 g ai/ha, preemergence): 90
Plant response rating, Goosegrass (goosegrass; [1]): 100
Goosegrass plant response rating (goosegrass; [2]): 70
Plant response rating, Goosegrass (goosegrass; [3]): 70
Goosegrass plant response rating (goosegrass; [4]): 100
Plant response rating, Goosegrass (goosegrass; [5]): 40
Plant response rating, Goosegrass (goosegrass; [6]): 20

C=CCNC(=O)c1cccc(NC(=O)c2sc(C(C)(C)C)nc2C)c1 [Compound 202]
Plant response rating, Goosegrass (goosegrass; [7]): 20
Plant response rating, Goosegrass (goosegrass; [1]): 85
Plant response rating, Goosegrass (goosegrass; [8]): 90
Goosegrass plant response rating (goosegrass; [4]): 95

CCC1=NN(C(C)(C)C)CC1C(=O)Nc1cc(C(=O)N2CC=CC2)ccc1F (racemic) [Compound 340]
Plant response rating, Goosegrass (goosegrass; [7]): 5
Plant response rating (0 = no effect, 100 = complete control), Goosegrass (goosegrass; 125 g ai/ha, preemergence): 60
Plant response rating, Goosegrass (goosegrass; [8]): 85
Plant response rating, Goosegrass (goosegrass; [9]): 90

CCc1nn(C(C)(C)C)cc1C(=O)Nc1cccc(C(C)=NO)c1 [Compound 188]
Plant response rating, Goosegrass (goosegrass; [7]): 15
Plant response rating, Goosegrass (goosegrass; [1]): 70
Goosegrass plant response rating (goosegrass; [4]): 90

CCNC(=O)c1ccc(F)c(NC(=O)C2CN(C(C)(C)C)N=C2CC)c1 (stereo not shown) [Compound 336, 1-(1,1-dimethylethyl)-3-ethyl-N-[5-[(ethylamino)carbonyl]-2-fluorophenyl]-4,5-dihydro-1H-pyrazole-4-carboxamide]
pest or weed control at 62 g/ha (goosegrass; Eleusine indica, pre-emergence, 312 h, 62 g ai/ha, preemergence, scale 0 to 100, read-out: Plant response rating, Goosegrass): 95%
pest or weed control at 125 g/ha (goosegrass; Eleusine indica, pre-emergence, 312 h, 125 g ai/ha, scale 0 (no effect) to 100 (complete control), visual, 12 to 14 days, read-out: Plant response rating, Goosegrass): 100%
pest or weed control at 250 g/ha (goosegrass; Eleusine indica, pre-emergence, 312 h, 250 g ai/ha, scale 0-100, read-out: Plant response rating, Goosegrass): 100%
pest or weed control at 500 g/ha (goosegrass; Eleusine indica, pre-emergence, 312 h, 500 g ai/ha, scale 0 to 100 (0 no effect, 100 complete control), visual, 12 to 14 days, read-out: Plant response rating, Goosegrass): 100%

CCn1nc(C(C)(C)C)cc1C(=O)Nc1cccc(S(=O)(=O)C(F)(F)F)c1 [Compound 134]
Plant response rating (0 = no effect, 100 = complete control), Goosegrass (goosegrass; 62 g ai/ha, preemergence): 20
Plant response rating, Goosegrass (goosegrass; [1]): 65
Goosegrass plant response rating (goosegrass; [4]): 95

CCC1=NN(C(C)(C)C)CC1C(=O)Nc1cc(C(=O)N2CCCC2)ccc1F (racemic) [Compound 341]
Plant response rating, Goosegrass (goosegrass; [7]): 70
Plant response rating (0 = no effect, 100 = complete control), Goosegrass (goosegrass; 125 g ai/ha, preemergence): 85
Plant response rating, Goosegrass (goosegrass; [8]): 85
Plant response rating, Goosegrass (goosegrass; [9]): 90

C#CCOc1cccc(NC(=O)c2cc(C(C)(C)C)nn2CC)c1 [Compound 411]
Barley, Winter plant response rating (winter barley; [2]): 40
Plant response rating, Barley, Winter (winter barley; [3]): 35
Plant response rating, Barley, Winter (winter barley; postemergence, 125 g ai/ha, scale 0 to 100 (0 no effect, 100 complete control)): 35
Plant response rating, Barley, Winter (winter barley; postemergence, 62 g ai/ha, scale 0 to 100 (0 no effect, 100 complete control)): 30
Blackgrass plant response rating (blackgrass; [2]): 70
Plant response rating, Blackgrass (blackgrass; [3]): 65
Plant response rating, Blackgrass (blackgrass; [5]): 65
Plant response rating, Blackgrass (blackgrass; [6]): 50
Plant response rating, Canarygrass (canarygrass; [3]): 65
Plant response rating, Canarygrass (canarygrass; [10]): 65
Plant response rating, Canarygrass (canarygrass; [5]): 60
Plant response rating, Canarygrass (canarygrass; [6]): 60
Plant response rating, Bromegrass, Downy (downy bromegrass; [3]): 45
Plant response rating, Bromegrass, Downy (downy bromegrass; [10]): 45
Plant response rating, Bromegrass, Downy (downy bromegrass; [5]): 40
Plant response rating, Bromegrass, Downy (downy bromegrass; [6]): 40
Plant response rating, Foxtail, Green (green foxtail; [3]): 65
Plant response rating, Foxtail, Green (green foxtail; [10]): 70
Plant response rating, Foxtail, Green (green foxtail; [5]): 65
Plant response rating, Foxtail, Green (green foxtail; [6]): 60
Plant response rating, Ryegrass, Italian (Italian ryegrass; [10]): 65
Plant response rating, Ryegrass, Italian (Italian ryegrass; [5]): 60
Plant response rating, Ryegrass, Italian (Italian ryegrass; [6]): 45
Plant response rating, Wheat (wheat; [10]): 55
Plant response rating, Wheat (wheat; [5]): 35
Plant response rating, Wheat (wheat; [6]): 35
Plant response rating, Oat, Wild (wild oat; [10]): 65
Plant response rating, Oat, Wild (wild oat; [5]): 60
Plant response rating, Oat, Wild (wild oat; [6]): 60
Plant response rating, Windgrass (windgrass; [10]): 65
Plant response rating, Windgrass (windgrass; [5]): 55
Plant response rating, Windgrass (windgrass; [6]): 40

CCN(CC)C(=O)c1cccc(NC(=O)c2cc(C(C)(C)C)nn2CC)n1 [Compound 145]
Plant response rating (0 = no effect, 100 = complete control), Goosegrass (goosegrass; 62 g ai/ha, preemergence): 50
Plant response rating, Goosegrass (goosegrass; [1]): 70
Goosegrass plant response rating (goosegrass; [4]): 80

CCC1=NN(C(C)(C)C)CC1C(=O)Nc1cc(C(=O)N(C)CC)ccc1F (racemic) [Compound 342]
Plant response rating, Goosegrass (goosegrass; [7]): 60
Plant response rating (0 = no effect, 100 = complete control), Goosegrass (goosegrass; 125 g ai/ha, preemergence): 65
Plant response rating, Goosegrass (goosegrass; [8]): 65
Plant response rating, Goosegrass (goosegrass; [9]): 90

CCn1nc(C(C)(C)C)cc1C(=O)Nc1cncc(C(=O)N(C)C)n1 [Compound 287]
Plant response rating, Goosegrass (goosegrass; [7]): 70
Plant response rating, Goosegrass (goosegrass; [1]): 100
Plant response rating, Goosegrass (goosegrass; [8]): 100
Plant response rating, Goosegrass (goosegrass; [9]): 100

CCNC(=O)c1ccc(F)c(N(C(C)=O)C(=O)c2cc(C(C)(C)C)nn2CC)c1 [Compound 399]
Plant response rating, Goosegrass (goosegrass; [7]): 95
Plant response rating (0 = no effect, 100 = complete control), Goosegrass (goosegrass; 125 g ai/ha, preemergence): 100
Plant response rating, Goosegrass (goosegrass; [8]): 100
Plant response rating, Goosegrass (goosegrass; [9]): 100

CCN(CC)C(=O)c1cccc(NC(=O)c2nn(C(C)(C)C)nc2C)c1 [Compound 418]
Plant response rating, Goosegrass (goosegrass; [7]): 55
Plant response rating (0 = no effect, 100 = complete control), Goosegrass (goosegrass; 125 g ai/ha, preemergence): 100
Plant response rating, Goosegrass (goosegrass; [8]): 100
Plant response rating, Goosegrass (goosegrass; [9]): 100

CCn1nc(C(C)(C)C)cc1C(=O)Nc1cc(C#N)ccc1F [Compound 140]
Plant response rating (0 = no effect, 100 = complete control), Goosegrass (goosegrass; 62 g ai/ha, preemergence): 0
Plant response rating, Goosegrass (goosegrass; [1]): 0
Goosegrass plant response rating (goosegrass; [4]): 75

CCN1N=C(C(C)(C)C)CC1C(=O)Nc1cc(C(=O)N2CCCC2)ccc1F (racemic) [Compound 309]
Plant response rating, Goosegrass (goosegrass; [7]): 85
Plant response rating, Goosegrass (goosegrass; [1]): 85
Plant response rating, Goosegrass (goosegrass; [8]): 100
Plant response rating, Goosegrass (goosegrass; [9]): 100

CCCn1nc(C(C)(C)C)cc1C(=O)Nc1cccc(C(=O)NCC)c1 [Compound 57]
Plant response rating (0 = no effect, 100 = complete control), Goosegrass (goosegrass; 62 g ai/ha, preemergence): 45
Plant response rating, Goosegrass (goosegrass; [1]): 75
Plant response rating, Goosegrass (goosegrass; [11]): 90
Goosegrass plant response rating (goosegrass; [4]): 90

CCCCn1nc(C(C)(C)C)cc1C(=O)Nc1cccc(C(=O)NCC)c1 [Compound 41]
Plant response rating, Goosegrass (goosegrass; [12]): 10
Plant response rating (0 = no effect, 100 = complete control), Goosegrass (goosegrass; 62 g ai/ha, preemergence): 20
Plant response rating, Goosegrass (goosegrass; [1]): 30
Plant response rating, Goosegrass (goosegrass; [11]): 40

CC(=NO)c1cccc(NC(=O)c2cc(C(C)(C)C)nn2C)c1 [Compound 102]
Plant response rating (0 = no effect, 100 = complete control), Goosegrass (goosegrass; 62 g ai/ha, preemergence): 90
Plant response rating, Goosegrass (goosegrass; [1]): 100
Goosegrass plant response rating (goosegrass; [4]): 100

CCC(=NO)c1cccc(NC(=O)c2cc(C(C)(C)C)nn2C)c1 [Compound 118]
Plant response rating, Goosegrass (goosegrass; [12]): 20
Plant response rating (0 = no effect, 100 = complete control), Goosegrass (goosegrass; 62 g ai/ha, preemergence): 20
Plant response rating, Goosegrass (goosegrass; [1]): 80

CCn1nc(C(C)(C)C)cc1C(=O)Nc1cc(C(=O)N2CCCC2)ccc1F [Compound 242]
Plant response rating, Goosegrass (goosegrass; [7]): 100
Plant response rating, Goosegrass (goosegrass; [1]): 100
Plant response rating, Goosegrass (goosegrass; [8]): 100
Plant response rating, Goosegrass (goosegrass; [9]): 100

CCc1nc(C(C)(C)C)sc1C(=O)Nc1cccc(C(=O)NCC2CC2)n1 [Compound 215]
Plant response rating, Goosegrass (goosegrass; [7]): 0
Plant response rating, Goosegrass (goosegrass; [1]): 40
Plant response rating, Goosegrass (goosegrass; [8]): 80
Plant response rating, Goosegrass (goosegrass; [9]): 100

CCNC(=O)c1cc(C)nc(NC(=O)c2cc(C(C)(C)C)nn2CC)c1 [Compound 149]
Plant response rating, Goosegrass (goosegrass; [7]): 10
Plant response rating, Goosegrass (goosegrass; [1]): 70
Goosegrass plant response rating (goosegrass; [4]): 90

From US20060069132A1, “Azolecarboxamide herbicides” (priority 2004, published 2006)
